Laboratory results reported in paper PMC11039641, “Structural and biochemical analysis of family 92 carbohydrate-binding modules uncovers multivalent binding to β-glucans” (Nature Communications, 2024).

Legend:
[1] = target: T1, CpCBM92A (Chitinophaga pinensis, UniProt A0A979GQH9); assay: isothermal titration calorimetry; details: 50 mM sodium phosphate pH 6.5; three equivalent binding sites (N fixed to 3)
T1 construct: gene Cpin_2580; single CBM92 domain (three WExF motifs incl. W481, W523, W565), borders only in supplement; pET21a, C-terminal His6, E. coli BL21 (DE3)
Text: isothermal titration calorimetry on CpCBM92A

[2] = target: T2, CpCBM92B (Chitinophaga pinensis, UniProt A0A979GQH9); assay: X-ray crystallography of soaked crystal; assay type: binding; details: sites in alpha, beta and gamma subdomains, saturating ligand soak
T2 construct: gene Cpin_2580; single CBM92 domain (incl. Arg955, Asp959 of beta subdomain), locus and borders only in supplement; His6-tagged, E. coli BL21 (DE3)
T2 sequence (A0A979GQH9 entry or part of it): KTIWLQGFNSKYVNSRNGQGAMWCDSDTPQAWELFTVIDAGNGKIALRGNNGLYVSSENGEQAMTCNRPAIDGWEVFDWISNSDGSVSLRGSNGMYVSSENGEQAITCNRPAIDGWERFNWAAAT

T1 sequence (A0A979GQH9 entry or part of it): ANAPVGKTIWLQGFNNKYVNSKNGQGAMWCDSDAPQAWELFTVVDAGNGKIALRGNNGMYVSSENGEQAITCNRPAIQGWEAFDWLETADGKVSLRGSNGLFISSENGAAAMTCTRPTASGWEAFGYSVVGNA

Kd [1]	SMILES	X-ray crystallography of soaked crystal ([2]; non-reducing end sugar in cleft)	X-ray crystallography of soaked crystal [2]
202 ± 40 µM	OC[C@H]1O[C@@H](OC[C@H]2OC(O)[C@H](O)[C@@H](O)[C@@H]2O)[C@H](O)[C@@H](O)[C@@H]1O (stereo partly drawn) [G2, gentiobiose]	Adding either G2 or S2 to the protein crystals led to binding	–
882 ± 107 µM	OC[C@H]1O[C@@H](O[C@H]2C(O)O[C@H](CO)[C@@H](O)[C@@H]2O)[C@H](O)[C@@H](O)[C@@H]1O (stereo partly drawn) [S2, sophorose]	–	Adding either G2 or S2 to the protein crystals led to binding
1840 ± 200 µM	OC[C@H]1OC(O)[C@H](O)[C@@H](O)[C@@H]1O (stereo partly drawn) [glucose]	–	Soaking experiments of the CpCBM92B protein crystals with glucose, gentiobiose
